How the values were obtained:
[1] = biological target: T1, 19S RP (Homo sapiens, UniProt P54578+Q9Y5K5); experiment: Ub-GFP cleavage assay with 19S RP; assay type: biochemical
T1 construct: purchased Boston Biochem E-366
Procedure: To this end the ability of b-AP15 to inhibit cleavage of recombinant ubiquitin-GFP was assessed. Recombinant ubiquitin-GFP is a substrate for 19S RP DUB activity (22). […] The type of ubiquitin bonds present in the polyubiquitin chain determines the fate of an ubiquitin-modified substrate. K48 linked polyubiquitin chains generally targets conjoined proteins for degradation (23), whereas K63 linked chains are involved in non-proteolytic roles including DNA repair (24) and mitotic chromosome segregation (25). […] The inhibition of ubiquitin chain disassembly observed could account for the accumulation of high molecular weight ubiquitin conjugates in b-AP15 treated cells.
The recombinant Ub-GFP plasmid pet19b Ub-M-GFP was generated as described (42). In brief recombinant Ub-GFP was purified from BL21 E. coli cells by His affinity purification. For cleavage assays 19S RP (25 nM) was incubated with 10 mM NEM, 250 μM TPEN or 50 μM b-AP15 for 10 min followed by the addition of recombinant Ub-GFP (200 nM). […] The level of Ub-GFP cleavage or ubiquitin disassembly was determined by immunoblotting with anti ubiquitin antibodies. […] The cleavage of ubiquitinated Hdm2 substrate and ubiquitinated Hdm2 was determined by immunoblotting with anti-Hdm2 antibodies. […]

[2] = biological target: T2, 26S proteasome (Homo sapiens, UniProt P54578+Q9Y5K5); experiment: DUB inhibition assay, 26S proteasomes with ubiquitin-AMC; assay type: biochemical; conditions: Ub-AMC
T2 construct: purchased Boston Biochem E-365

[3] = Animal weight and side effects in treated tumor-bearing mice; assay type: in vivo
Procedure: In order to investigate the effect of b-AP15 on tumor growth in vivo, the compound was administered to mice bearing either a human tumor or mouse xenografts. FaDu head and neck carcinoma were chosen as a SCID mouse xenograft both as a model for a p53mut tumor and since this model is suitable for studies using circulating cell death biomarkers (30). Significant inhibition of FaDu tumor growth was observed following daily treatment with b-AP15 (treated/control tumor volume, T/C=0.4, p=<0.001). Similarly b-AP15 (day on/2 day off schedule) inhibited tumor growth in C57BL/6J mice bearing lung carcinomas (T/C=0.16, p=<0.01). […] To examine whether b-AP15 promotes tumor cell death in vivo, plasma levels of cytokeratin-18 (CK18) were analyzed. […] To investigate the ability of b-AP15 to inhibit proteasome deubiquitination in vivo, accumulation of poly-ubiquitin conjugates was analyzed by means of antibodies specific for K48 linked polyubiquitin chains. Histological analysis of treated tumors confirmed the accumulation of poly-ubiquitin conjugates.
Animal experiments were conducted in full accordance with Swedish governmental statutory regulations on animal welfare under permission from local ethical committees. Animals were housed at a max of five per cage and provided with sterile water and food ad libitum. All mice were monitored and weighed daily. For the head and neck carcinoma model a 100-μl cell suspension containing 1×10^6 FaDu cells was injected subcutaneously into the right rear flank of the animals. After injection, tumor growth was measured daily with calipers and the tumor volume calculated by the formula […]. When tumors had grown to a size of approximately 200 mm^3 (Day 0) mice were randomized to receive either vehicle (n=10) or b-AP15 5 mg/kg^−1 by subcutaneous injection s.c. (n=15) daily. For the colon carcinoma model, 2.5×10^6 HCT-116 colon carcinoma cells stably transfected with Bcl-2 (HCT-116^Bcl-2+) were inoculated subcutaneously into the right flank of nude mice. One day after inoculation mice were treated with 5 mg/kg^−1 by intra peritoneal injection (i.p.). Animals were inspected daily to establish the tumor onset and growth. For the lung carcinoma model a 100-μl cell suspension containing 2×10^5 Lewis Lung Carcinoma (LLC) cells was injected subcutaneously into the right rear flank of C57/B6 mice. When tumors had grown to a size of approximately 50 mm^3 (Day 0) mice were randomized to receive either vehicle (n=4) or b-AP15 5 mg/kg^−1 i.p. (n=4) with a treatment cycle consisting of two days treatment followed by two days no treatment (2 days on/2 days off) for two weeks. For the breast carcinoma model a 100-μl cell suspension containing 1×10^5 […] was injected subcutaneously into the right mammary fat pad of BALB/c mice. When tumors had grown to a size approximately 25 mm^3 (Day 0), mice were randomized to receive either vehicle (n=5) or b-AP15 2.5 mg/kg^−1 i.p. (n=5) with a treatment cycle consisting of one days treatment followed by three days no treatment (1 day on/3 days off) for 3 weeks. In the AML studies female C57BL/6J mice were injected i.v. in the tail vein with 5×10^5 C1498 AML cells. After eight days mice were randomized to receive either b-AP15 5 mg/kg^−1 (n=10) or vehicle (n=10) i.p. for 7 days (day +8 till +14). Nineteen days after malignant cell injection all of the mice were killed and histopathological manifestations of liver, ovary (target organs for this model of tumor) were evaluated and compared between groups. […]

In the case of `C=CC(=O)N1C/C(=C\c2ccc([N+](=O)[O-])cc2)C(=O)/C(=C/c2ccc([N+](=O)[O-])cc2)C1` [b-AP15], the “cleavage of Ub-GFP by 19S RP” value [1] is reported as “effectively inhibited”, the “inhibition of deubiquitinating activity of 26S proteasome” value [2] is reported as “inhibits the deubiquitinating activity” and the “difference in weight at start and endpoint between control and treated animals” value (“difference in weight” for short) ([3]; 4T1) is reported as “+5.8%”. For the same molecule, the “difference in weight” value ([3]; FaDu xenograft) was −1.3%, the “difference in weight” value ([3]; LLC) was “+2.1%” and the adverse side effects ([3]; b-AP15 treated group) was “No adverse side effects were observed”. For the same molecule, the “average weight loss at the conclusion of the study” value ([3]; b-AP15 treated group) was under 5%.
